Measured values taken from PMC11314561, “Design and Synthesis of Novel Aminoindazole-pyrrolo[2,3-b]pyridine Inhibitors of IKKα That Selectively Perturb Cellular Non-Canonical NF-κB Signalling” (Molecules, 2024).

What was measured:
Assay in all cases: kinase panel
Type in all cases: biochemical
[1] = target: CDK1/cyclinB(h) (Homo sapiens, UniProt P06493)
In short: (§1)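 % inhibition read-out; kinome panel of 231 kinases; one analogue run on a selected 98-kinase subset only.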

[2] = target: CDK5/p25(h) (Homo sapiens, UniProt Q00535)
In short: as §1

[3] = target: T1, CHK1(h) (Homo sapiens, UniProt O14757)
T1 sequence (O14757 1-476): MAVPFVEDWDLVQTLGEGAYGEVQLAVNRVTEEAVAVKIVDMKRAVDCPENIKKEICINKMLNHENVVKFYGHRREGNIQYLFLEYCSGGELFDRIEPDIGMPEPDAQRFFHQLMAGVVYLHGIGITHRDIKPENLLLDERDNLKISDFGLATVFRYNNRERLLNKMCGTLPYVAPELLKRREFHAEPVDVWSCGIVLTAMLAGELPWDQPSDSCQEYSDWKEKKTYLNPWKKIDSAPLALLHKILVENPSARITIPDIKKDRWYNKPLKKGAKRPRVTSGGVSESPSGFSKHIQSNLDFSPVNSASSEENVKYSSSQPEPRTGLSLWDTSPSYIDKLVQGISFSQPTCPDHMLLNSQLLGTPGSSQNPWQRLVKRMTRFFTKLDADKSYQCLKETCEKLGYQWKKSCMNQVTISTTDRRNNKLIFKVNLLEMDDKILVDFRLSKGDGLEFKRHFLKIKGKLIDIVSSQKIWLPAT
In short: as §1

[4] = target: T2, EphA1(h) (Homo sapiens, UniProt P21709)
T2 sequence (P21709 26-976): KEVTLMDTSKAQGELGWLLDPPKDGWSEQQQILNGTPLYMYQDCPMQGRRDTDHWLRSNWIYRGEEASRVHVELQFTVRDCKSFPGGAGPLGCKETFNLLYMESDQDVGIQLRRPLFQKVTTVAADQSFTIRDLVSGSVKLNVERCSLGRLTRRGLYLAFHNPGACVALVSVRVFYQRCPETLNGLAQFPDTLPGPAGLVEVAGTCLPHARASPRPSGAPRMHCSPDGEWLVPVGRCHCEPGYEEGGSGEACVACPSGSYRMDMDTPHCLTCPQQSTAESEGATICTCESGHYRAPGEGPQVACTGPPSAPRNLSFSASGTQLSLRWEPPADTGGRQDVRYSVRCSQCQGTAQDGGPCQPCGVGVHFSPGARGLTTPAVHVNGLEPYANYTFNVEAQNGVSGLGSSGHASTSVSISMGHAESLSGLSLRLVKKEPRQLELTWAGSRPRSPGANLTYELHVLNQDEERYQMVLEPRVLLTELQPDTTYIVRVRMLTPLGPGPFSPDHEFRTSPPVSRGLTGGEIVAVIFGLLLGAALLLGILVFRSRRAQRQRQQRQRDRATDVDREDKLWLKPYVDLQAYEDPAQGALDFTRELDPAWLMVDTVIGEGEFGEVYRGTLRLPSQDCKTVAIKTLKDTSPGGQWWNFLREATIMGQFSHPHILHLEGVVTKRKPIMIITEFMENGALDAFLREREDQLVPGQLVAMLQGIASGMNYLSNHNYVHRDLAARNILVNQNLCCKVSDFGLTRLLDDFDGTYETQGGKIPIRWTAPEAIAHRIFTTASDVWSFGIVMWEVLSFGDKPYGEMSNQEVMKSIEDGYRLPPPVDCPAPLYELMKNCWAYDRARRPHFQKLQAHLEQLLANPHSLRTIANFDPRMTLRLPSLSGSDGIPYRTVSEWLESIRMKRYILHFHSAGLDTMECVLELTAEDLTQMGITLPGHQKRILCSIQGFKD
In short: as §1

[5] = target: JNK1α1(h) (Homo sapiens, UniProt P45983)
In short: as §1

[6] = target: KDR(h) (Homo sapiens, UniProt P35968)
In short: as §1

[7] = target: MAPK1(h) (Homo sapiens, UniProt P27361)
In short: as §1

[8] = target: MEK1(h) (Homo sapiens, UniProt Q02750)
In short: as §1

[9] = target: T3, NEK2(h) (Homo sapiens, UniProt P51955)
T3 sequence (P51955 1-445): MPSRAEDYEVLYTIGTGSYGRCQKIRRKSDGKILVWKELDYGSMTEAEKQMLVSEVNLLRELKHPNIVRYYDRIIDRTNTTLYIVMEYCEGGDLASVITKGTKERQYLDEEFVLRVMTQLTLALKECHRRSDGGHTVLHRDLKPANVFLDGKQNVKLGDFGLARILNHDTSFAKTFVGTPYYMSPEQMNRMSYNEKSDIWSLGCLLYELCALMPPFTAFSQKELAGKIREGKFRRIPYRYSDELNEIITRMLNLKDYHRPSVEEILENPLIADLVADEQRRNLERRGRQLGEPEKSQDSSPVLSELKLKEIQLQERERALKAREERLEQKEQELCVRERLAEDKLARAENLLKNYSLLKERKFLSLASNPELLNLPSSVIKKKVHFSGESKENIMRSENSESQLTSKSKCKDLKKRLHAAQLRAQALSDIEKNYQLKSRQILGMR
In short: as §1

[10] = target: Rsk1(h) (Homo sapiens, UniProt Q15418)
In short: as §1

[11] = target: mTOR(h) (Homo sapiens, UniProt P42345)
In short: as §1

Sequence of KDR(h) (P35968 20-1356): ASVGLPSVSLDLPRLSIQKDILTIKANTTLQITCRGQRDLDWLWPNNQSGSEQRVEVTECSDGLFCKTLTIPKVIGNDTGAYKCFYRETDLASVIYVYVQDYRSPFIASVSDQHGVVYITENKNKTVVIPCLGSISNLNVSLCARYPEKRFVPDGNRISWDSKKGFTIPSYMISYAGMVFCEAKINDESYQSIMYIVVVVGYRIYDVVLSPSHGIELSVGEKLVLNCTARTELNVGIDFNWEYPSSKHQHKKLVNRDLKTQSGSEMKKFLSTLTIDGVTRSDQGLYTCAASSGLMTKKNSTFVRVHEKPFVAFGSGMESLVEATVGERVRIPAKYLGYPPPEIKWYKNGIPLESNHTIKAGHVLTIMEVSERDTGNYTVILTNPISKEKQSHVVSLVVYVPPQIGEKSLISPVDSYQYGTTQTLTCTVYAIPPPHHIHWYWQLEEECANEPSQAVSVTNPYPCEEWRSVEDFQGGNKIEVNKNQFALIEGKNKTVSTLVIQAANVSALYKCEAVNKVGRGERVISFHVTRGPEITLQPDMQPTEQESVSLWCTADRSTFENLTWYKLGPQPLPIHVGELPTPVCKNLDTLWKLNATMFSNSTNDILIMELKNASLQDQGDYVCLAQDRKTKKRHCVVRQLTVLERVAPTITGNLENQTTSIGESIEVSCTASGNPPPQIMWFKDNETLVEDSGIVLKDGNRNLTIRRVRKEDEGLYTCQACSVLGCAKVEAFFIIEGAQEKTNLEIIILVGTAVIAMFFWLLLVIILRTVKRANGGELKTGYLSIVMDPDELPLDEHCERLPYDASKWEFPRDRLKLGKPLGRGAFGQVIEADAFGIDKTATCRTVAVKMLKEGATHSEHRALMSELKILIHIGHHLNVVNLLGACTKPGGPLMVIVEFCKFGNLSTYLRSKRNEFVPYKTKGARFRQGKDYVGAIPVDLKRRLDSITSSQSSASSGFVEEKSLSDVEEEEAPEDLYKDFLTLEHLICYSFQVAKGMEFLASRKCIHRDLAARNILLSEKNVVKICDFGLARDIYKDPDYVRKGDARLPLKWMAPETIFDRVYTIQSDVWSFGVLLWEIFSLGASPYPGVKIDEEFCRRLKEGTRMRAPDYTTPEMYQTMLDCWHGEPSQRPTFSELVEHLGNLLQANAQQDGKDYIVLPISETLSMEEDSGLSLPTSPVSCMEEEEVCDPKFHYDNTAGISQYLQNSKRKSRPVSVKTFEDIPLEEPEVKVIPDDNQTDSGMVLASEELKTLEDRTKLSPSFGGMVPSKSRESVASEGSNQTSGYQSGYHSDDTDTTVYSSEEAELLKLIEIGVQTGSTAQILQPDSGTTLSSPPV
Sequence of MAPK1(h) (P27361 whole entry): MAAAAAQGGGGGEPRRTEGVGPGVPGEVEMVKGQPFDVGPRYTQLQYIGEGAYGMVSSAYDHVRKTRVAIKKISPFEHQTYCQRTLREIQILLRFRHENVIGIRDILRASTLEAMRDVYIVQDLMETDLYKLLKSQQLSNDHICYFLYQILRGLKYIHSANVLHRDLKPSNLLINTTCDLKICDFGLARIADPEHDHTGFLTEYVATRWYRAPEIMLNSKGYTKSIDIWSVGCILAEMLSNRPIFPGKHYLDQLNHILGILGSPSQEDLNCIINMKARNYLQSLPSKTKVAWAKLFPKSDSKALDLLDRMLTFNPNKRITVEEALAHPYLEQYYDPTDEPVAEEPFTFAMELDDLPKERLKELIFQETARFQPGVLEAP
Sequence of JNK1α1(h) (P45983 1-384 isoform P45983-2): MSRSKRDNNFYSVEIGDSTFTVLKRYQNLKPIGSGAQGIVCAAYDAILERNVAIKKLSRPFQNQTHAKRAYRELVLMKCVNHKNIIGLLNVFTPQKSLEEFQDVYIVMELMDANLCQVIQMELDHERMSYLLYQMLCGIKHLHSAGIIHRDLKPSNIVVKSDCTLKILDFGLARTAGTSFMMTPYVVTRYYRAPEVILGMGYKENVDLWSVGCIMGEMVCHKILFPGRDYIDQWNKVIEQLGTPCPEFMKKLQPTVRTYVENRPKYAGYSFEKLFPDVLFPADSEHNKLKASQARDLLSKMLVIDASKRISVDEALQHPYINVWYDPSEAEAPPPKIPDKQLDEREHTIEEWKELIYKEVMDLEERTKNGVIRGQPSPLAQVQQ
Sequence of Rsk1(h) (Q15418 whole entry): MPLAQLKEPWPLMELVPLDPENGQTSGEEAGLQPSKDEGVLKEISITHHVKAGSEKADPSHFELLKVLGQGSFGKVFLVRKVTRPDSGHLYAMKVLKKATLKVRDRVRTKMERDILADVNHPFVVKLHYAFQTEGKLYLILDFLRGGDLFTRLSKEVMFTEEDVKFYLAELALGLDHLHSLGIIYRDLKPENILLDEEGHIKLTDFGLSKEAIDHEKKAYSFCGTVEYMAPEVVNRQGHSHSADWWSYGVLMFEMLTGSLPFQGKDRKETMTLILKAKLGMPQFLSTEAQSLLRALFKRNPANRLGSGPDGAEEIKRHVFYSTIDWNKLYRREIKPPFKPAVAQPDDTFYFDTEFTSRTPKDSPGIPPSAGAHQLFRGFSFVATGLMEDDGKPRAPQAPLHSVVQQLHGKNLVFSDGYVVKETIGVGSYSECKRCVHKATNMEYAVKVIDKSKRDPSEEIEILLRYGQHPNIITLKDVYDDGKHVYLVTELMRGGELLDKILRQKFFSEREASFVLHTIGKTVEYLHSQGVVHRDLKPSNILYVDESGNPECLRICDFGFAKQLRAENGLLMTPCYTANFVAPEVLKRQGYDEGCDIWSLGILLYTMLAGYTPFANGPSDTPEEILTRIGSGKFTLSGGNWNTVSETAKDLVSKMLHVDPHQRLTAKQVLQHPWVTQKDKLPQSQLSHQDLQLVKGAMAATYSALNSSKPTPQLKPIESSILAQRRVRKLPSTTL
Sequence of CDK5/p25(h) (Q00535 whole entry): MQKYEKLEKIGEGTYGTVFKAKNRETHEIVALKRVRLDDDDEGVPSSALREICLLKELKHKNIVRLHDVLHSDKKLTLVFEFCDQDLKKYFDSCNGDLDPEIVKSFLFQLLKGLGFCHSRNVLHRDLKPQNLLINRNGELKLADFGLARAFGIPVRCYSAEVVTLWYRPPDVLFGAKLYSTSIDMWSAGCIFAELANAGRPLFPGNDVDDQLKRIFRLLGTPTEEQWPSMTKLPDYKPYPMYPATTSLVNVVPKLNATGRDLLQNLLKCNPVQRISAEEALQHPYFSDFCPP
Sequence of CDK5/p25(h) (Q15078 99-307 partner limits assumed): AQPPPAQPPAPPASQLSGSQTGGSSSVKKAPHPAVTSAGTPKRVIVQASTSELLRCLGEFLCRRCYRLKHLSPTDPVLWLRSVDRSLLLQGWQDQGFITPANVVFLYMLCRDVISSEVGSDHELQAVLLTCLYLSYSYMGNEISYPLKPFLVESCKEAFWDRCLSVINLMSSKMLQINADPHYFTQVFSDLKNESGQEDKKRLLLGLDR
Sequence of MEK1(h) (Q02750 whole entry): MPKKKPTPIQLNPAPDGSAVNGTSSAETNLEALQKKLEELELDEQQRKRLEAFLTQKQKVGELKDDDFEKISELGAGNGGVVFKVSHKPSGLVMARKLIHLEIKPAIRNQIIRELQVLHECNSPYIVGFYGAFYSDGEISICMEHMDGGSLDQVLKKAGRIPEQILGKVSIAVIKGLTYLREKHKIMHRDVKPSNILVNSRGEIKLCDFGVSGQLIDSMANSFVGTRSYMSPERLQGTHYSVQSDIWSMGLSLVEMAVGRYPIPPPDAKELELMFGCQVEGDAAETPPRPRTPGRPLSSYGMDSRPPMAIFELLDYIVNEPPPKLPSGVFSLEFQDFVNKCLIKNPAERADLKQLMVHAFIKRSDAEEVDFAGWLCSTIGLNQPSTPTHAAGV
Sequence of CDK1/cyclinB(h) (P06493 whole entry): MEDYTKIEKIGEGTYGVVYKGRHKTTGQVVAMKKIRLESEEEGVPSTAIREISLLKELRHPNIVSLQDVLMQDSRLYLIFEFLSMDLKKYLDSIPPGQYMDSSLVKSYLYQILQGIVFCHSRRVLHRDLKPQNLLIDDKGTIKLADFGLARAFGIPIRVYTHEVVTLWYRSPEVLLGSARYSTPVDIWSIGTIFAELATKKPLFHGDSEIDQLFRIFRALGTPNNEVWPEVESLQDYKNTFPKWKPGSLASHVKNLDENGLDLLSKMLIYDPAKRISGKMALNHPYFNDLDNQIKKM
Sequence of CDK1/cyclinB(h) (P14635 whole entry partner): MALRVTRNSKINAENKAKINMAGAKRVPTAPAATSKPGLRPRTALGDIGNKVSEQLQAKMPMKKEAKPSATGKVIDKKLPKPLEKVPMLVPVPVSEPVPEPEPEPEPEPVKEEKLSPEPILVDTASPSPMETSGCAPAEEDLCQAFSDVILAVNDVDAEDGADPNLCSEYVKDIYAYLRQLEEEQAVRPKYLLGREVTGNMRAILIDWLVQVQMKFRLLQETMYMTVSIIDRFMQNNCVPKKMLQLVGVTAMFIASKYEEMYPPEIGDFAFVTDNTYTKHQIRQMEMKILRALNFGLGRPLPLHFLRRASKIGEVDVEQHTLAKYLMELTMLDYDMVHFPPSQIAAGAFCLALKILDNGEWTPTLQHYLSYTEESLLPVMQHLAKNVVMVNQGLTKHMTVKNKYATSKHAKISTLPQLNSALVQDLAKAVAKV

| Compound | inhibition at 1 µM [1] [%] | inhibition at 1 µM [2] [%] | inhibition at 1 µM [3] [%] | inhibition at 1 µM [4] [%] | inhibition at 1 µM [5] [%] | inhibition at 1 µM [6] [%] | inhibition at 1 µM [7] [%] | inhibition at 1 µM [8] [%] | inhibition at 1 µM [9] [%] | inhibition at 1 µM [10] [%] | inhibition at 1 µM [11] [%] |
| --- | --- | --- | --- | --- | --- | --- | --- | --- | --- | --- | --- |
| Nc1n[nH]c2ccc(-c3ccnc4[nH]c(-c5ccccc5)cc34)cc12 [Compound 4] | 101 | 101 | -2 | 87 | 80 | 93 | 46 | 8 | 5 | 38 | 10 |
| Nc1n[nH]c2ccc(-c3ccnc4[nH]c(-c5cccc(OCc6ccccc6)c5)cc34)cc12 [Compound 5r [SU1261]] | 77 | 96 | -2 | 24 | 12 | 42 | -4 | 0 | 4 | 2 | 8 |
| Nc1n[nH]c2ccc(-c3ccnc4[nH]c(-c5ccnc(OCc6ccccc6)c5)cc34)cc12 [Compound 6g [SU1349]] | 58 | 92 | -9 | -7 | 25 | 26 | 18 | 8 | 8 | -18 | 0 |
